Data published in BindingDB's records for patent US20250034165 (Chia Tai Tianqing Pharmaceutical Group, 2025).

Key:
[1] = molecular target: Epidermal growth factor receptor (EGFR)(L858R)(T790M) (Homo sapiens, UniProt P00533, L858R/T790M); assay: Inhibitory Activity for EGFR (L858R/T790M) Kinase
Procedure: (§1) A 50 ng/μL EGFR (L858R/T790M, Carna) stock solution was diluted with a kinase buffer (50 mM HEPES, 10 mM MgCl2, 2 mM DTT, 1 mM EGTA, 0.01% Tween 20), and 6 μL of 1.67× working solution at 0.004175 ng/μL (final concentration: 0.0025 ng/μL) was added to each well. Different compounds dissolved in DMSO were added to wells using a nanoliter pipettor, resulting in the final concentrations of the compounds of 10 nM to 0.0024 nM (4-fold gradient, 7 concentrations in total), and blank control wells (without enzyme) and negative control wells (with enzyme, plus vehicle DMSO) were set, 2 replicate wells for each concentration. After enzyme was reacted with the compound or vehicle for 30 min, 5×ATP at 25 μM (final concentration: 5 μM, Sigma) prepared with a kinase buffer was mixed with 5× substrate at 0.5 μM (final concentration: 0.1 μM, ULight-poly GT, PerkinElmer) at a ratio of 1:1 (v:v), and the mixture was added to each well at 4 μL/well. After being sealed with a film, the plate was incubated at room temperature for 2 h, and then 5 μL of 4×EDTA at 40 mM (final concentration: 10 mM) was added to each well. After the plate was incubated for 5 min at room temperature, 5 μL of 4× detection reagent at 8 nM (final concentration: 2 nM, Eu-anti-phospho-tyrosine antibody, PerkinElmer) was added to each well. After being incubated at room temperature for 1 h, the plate was read using a PerkinElmer Envision multi-mode microplate reader (excitation: 320 nm, emission: 665 nm), and IC50 was calculated by four-parameter fitting.

[2] = molecular target: Epidermal growth factor receptor (Homo sapiens, UniProt P00533); assay: Inhibitory Activity for EGFR (WT) Kinase
Procedure: A 50 ng/μL EGFR (WT, Carna) stock solution was diluted with a kinase buffer (50 mM HEPES, 10 mM MgCl2, 2 mM DTT, 1 mM EGTA, 0.01% Tween 20), and 6 μL of 1.67× working solution at 0.005 ng/μL (final concentration: 0.003 ng/μL) was added to each well. Different compounds dissolved in DMSO were added to the wells using a nanoliter pipettor, resulting in the final concentrations of the compounds of 100 nM to 0.0244 nM (4-fold gradient for 7 concentrations in total), and blank control wells (without enzyme) and negative control wells (with enzyme, plus vehicle DMSO) were set, 2 replicate wells for each concentration. After enzyme was reacted with the compound or vehicle for 30 min, 5×ATP at 25 μM (final concentration: 5 μM, Sigma) prepared with a kinase buffer was mixed with 5× substrate at 0.5 μM (final concentration: 0.1 μM, ULight-poly GT, PerkinElmer) at a ratio of 1:1 (v:v), and the mixture was added to each well at 4 μL/well. After being sealed with a film, the plate was incubated at room temperature for 2 h, and then 5 μL of 4×EDTA at 40 mM (final concentration: 10 mM) was added to each well. After the plate was incubated for 5 min at room temperature, 5 μL of 4× detection reagent at 8 nM (final concentration: 2 nM, Eu-anti-phospho-tyrosine antibody, PerkinElmer) was added to each well.

[3] = molecular target: Epidermal growth factor receptor [T790M,C797S,L858R] (UniProt P00533, C797S/L858R/T790M); assay: Inhibitory Activity for EGFR (L858R/T790M/C797S) Kinase
Procedure: as §1, with “(L858R/T790M/C797S, BPS)” for “(L858R/T790M, Carna)”, “0.00167” for “0.004175”, “0.001” for “0.0025”

[4] = molecular target: Epidermal growth factor receptor [T790M,L858R] (Homo sapiens, UniProt P00533, L858R/T790M); assay: Inhibitory Activity for EGFR (L858R/T790M) Kinase
Procedure: as §1

Epidermal growth factor receptor [T790M,C797S,L858R], sequence (P00533 25-1210 T790M/C797S/L858R limits assumed): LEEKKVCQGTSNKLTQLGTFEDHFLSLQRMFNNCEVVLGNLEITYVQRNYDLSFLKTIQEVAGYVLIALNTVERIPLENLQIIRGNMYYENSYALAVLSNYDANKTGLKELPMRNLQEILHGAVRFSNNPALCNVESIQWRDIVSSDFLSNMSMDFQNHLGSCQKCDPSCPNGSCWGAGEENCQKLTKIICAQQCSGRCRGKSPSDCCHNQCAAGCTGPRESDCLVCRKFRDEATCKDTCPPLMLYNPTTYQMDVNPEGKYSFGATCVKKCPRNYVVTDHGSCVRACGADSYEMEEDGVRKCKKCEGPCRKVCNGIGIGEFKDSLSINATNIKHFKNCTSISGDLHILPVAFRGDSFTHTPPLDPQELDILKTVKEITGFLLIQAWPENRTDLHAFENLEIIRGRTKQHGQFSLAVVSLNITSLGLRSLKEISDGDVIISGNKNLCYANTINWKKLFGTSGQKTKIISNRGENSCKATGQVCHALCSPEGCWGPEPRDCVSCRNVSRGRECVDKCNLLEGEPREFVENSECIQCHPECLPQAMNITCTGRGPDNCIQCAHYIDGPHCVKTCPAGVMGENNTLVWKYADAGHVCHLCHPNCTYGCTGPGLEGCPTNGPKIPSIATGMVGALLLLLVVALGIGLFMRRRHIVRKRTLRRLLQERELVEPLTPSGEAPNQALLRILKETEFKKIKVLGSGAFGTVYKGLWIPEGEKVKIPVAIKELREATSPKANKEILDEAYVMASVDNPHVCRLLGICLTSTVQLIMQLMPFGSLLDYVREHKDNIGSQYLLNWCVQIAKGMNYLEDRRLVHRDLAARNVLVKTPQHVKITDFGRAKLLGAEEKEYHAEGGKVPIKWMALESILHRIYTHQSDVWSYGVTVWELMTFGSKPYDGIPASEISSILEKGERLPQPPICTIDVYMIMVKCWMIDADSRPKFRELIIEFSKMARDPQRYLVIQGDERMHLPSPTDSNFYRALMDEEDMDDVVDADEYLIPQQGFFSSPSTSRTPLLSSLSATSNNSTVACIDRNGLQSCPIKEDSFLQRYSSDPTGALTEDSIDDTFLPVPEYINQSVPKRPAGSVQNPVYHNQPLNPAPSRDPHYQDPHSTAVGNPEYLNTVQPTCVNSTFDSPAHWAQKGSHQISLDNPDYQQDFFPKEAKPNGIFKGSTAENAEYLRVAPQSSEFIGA
Epidermal growth factor receptor, sequence (P00533 whole entry): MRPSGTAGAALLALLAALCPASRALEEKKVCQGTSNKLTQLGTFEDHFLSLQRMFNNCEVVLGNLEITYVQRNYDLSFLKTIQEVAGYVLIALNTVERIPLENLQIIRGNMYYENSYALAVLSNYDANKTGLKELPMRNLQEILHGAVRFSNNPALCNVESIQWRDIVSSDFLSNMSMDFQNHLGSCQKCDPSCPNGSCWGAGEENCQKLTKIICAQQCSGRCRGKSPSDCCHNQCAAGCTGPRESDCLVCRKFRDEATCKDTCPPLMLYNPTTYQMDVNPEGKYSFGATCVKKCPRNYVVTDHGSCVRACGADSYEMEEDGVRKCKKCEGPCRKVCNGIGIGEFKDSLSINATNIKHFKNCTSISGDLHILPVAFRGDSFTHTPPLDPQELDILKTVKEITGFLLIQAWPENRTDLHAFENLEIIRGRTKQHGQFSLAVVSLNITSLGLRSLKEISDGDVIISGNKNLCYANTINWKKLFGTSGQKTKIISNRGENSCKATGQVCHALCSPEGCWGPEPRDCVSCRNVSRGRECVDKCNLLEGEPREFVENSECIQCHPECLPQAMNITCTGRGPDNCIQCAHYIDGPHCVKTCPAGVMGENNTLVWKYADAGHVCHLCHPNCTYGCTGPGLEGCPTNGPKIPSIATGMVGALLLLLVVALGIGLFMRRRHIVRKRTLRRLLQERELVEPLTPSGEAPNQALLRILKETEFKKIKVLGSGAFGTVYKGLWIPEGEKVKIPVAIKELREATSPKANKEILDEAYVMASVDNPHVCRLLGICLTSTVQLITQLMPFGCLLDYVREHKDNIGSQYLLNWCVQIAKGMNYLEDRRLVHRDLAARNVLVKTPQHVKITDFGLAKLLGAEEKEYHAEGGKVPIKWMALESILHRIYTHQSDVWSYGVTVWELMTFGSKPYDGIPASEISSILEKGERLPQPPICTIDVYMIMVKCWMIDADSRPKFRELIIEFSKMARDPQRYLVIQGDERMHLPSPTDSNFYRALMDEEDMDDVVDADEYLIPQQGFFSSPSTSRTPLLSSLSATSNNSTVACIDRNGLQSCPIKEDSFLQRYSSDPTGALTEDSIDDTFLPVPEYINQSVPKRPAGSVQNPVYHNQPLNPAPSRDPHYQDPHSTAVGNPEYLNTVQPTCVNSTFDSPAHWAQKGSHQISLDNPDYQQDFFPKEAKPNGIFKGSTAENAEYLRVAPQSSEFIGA
Epidermal growth factor receptor (EGFR)(L858R)(T790M), sequence (P00533 25-1210 T790M/L858R limits assumed): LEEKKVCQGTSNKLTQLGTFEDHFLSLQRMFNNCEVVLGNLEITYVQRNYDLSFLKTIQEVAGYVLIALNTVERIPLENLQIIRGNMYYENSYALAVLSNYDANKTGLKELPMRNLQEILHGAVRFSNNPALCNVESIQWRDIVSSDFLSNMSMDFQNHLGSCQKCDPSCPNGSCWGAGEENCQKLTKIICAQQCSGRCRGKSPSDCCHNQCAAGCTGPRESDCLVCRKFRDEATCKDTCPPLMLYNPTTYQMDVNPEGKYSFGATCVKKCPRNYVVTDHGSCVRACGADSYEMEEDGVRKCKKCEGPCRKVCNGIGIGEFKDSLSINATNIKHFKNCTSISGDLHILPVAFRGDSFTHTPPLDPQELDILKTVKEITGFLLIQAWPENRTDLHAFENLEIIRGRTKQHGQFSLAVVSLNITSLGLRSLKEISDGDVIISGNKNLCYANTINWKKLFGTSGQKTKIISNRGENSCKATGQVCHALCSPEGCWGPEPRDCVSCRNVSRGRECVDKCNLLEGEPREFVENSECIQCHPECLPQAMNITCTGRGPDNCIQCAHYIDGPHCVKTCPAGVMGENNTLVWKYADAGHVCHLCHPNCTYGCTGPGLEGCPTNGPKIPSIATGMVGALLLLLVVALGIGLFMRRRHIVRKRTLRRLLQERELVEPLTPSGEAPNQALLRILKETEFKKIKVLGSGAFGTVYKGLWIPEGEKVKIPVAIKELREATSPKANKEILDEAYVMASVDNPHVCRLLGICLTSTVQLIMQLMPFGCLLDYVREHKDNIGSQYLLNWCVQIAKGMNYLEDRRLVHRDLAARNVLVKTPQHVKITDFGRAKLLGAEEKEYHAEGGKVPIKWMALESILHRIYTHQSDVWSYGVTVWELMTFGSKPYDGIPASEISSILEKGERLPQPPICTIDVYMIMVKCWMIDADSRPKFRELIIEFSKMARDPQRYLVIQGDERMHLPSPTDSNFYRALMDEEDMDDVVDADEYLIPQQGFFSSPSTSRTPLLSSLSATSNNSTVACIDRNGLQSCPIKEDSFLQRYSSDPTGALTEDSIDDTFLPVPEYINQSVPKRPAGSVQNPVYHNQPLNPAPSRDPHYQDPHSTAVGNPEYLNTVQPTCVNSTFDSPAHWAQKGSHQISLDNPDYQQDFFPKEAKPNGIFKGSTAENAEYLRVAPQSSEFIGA
Epidermal growth factor receptor [T790M,L858R], sequence (P00533 25-1210 T790M/L858R limits assumed): as above

SMILES	IC50 [1] [nM]	IC50 [2] [nM]	IC50 [3] [nM]	IC50 [4] [nM]
Cc1cc2cc(n1)-c1cnn(C)c1OCCC[C@@H](C1CC1)CN1/C(=N/C2=O)Nc2cc(NCC3(C)COC3)ccc21 [US20250034165, Example 40]	0.027	1.6	0.03	–
Cc1cc2cc(n1)-c1cnn(C)c1OCCC[C@@H](C1CC1)CN1/C(=N/C2=O)Nc2cc(N(C)C3COC3)ccc21 [US20250034165, Example 41]	0.018	1.1	0.021	–
Cc1cc2cc(n1)-c1cnn(C)c1OCCC[C@@H](C1CC1)CN1/C(=N/C2=O)Nc2cc(NCCN(C)C)ccc21 [US20250034165, Example 42]	0.013	0.68	0.011	–
Cc1cc2cc(n1)-c1cnn(C)c1OCCC[C@@H](C1CC1)CN1/C(=N/C2=O)Nc2cc(NCCCN(C)C)ccc21 [US20250034165, Example 44]	0.01	0.36	0.007	–
Cc1cc2cc(n1)-c1cnn(C)c1OCCC[C@@H](C1CC1)CN1/C(=N/C2=O)Nc2ccc(N(C)CCN(C)C)cc21 [US20250034165, Example 45]	0.02	0.95	0.024	–
CCN1CCC(Nc2ccc3c(c2)N/C2=N\C(=O)c4cc(C)nc(c4)-c4cnn(C)c4OCCC[C@@H](C4CC4)CN23)CC1 [US20250034165, Example 48]	–	0.51	–	0.023
CNCCCNc1ccc2c(c1)N/C1=N\C(=O)c3cc(C)nc(c3)-c3cnn(C)c3OCCC[C@@H](C3CC3)CN12 [US20250034165, Example 49]	–	2.2	0.051	0.048
CNCCCCNc1ccc2c(c1)N/C1=N/C(=O)c3cc(C)nc(c3)-c3cnn(C)c3OCCC[C@@H](C3CC3)CN12 [US20250034165, Example 52]	–	0.57	0.035	0.026
Cc1cc2cc(n1)-c1cnn(C)c1OCCC[C@@H](C1CC1)CN1/C(=N/C2=O)Nc2cc(NCCCCN)ccc21 [US20250034165, Example 53]	0.011	0.72	0.014	–
Cc1cc2cc(n1)-c1cnn(C)c1OCCC[C@@H](C1CC1)CN1/C(=N/C2=O)Nc2ccc(NC3CCN(C(C)C)CC3)cc21 [US20250034165, Example 54]	0.017	0.39	0.025	–
CCN1CCC(Nc2ccc3c(c2)N2C[C@H](C4CC4)CCCOc4c(cnn4C)-c4cc(cc(C)n4)C(=O)/N=C/2N3)CC1 [US20250034165, Example 55]	0.017	0.5	0.022	–
Cc1cc2cc(n1)-c1cnn(C)c1OCCC[C@@H](C1CC1)CN1/C(=N/C2=O)Nc2cc(NC(C)CN(C)C)ccc21 (stereo partly specified) [US20250034165, Example 62]	0.031	0.77	0.016	–
Cc1cc2cc(n1)-c1cnn(C)c1OCCC[C@@H](C1CC1)CN1/C(=N/C2=O)Nc2cc(NCCCN3CCCC3)ccc21 [US20250034165, Example 70]	0.015	0.99	0.029	–
Cc1cc2cc(n1)-c1cnn(C)c1OCCC[C@@H](C1CC1)CN1/C(=N/C2=O)Nc2cc(NCCN3CCCC3)ccc21 [US20250034165, Example 72]	0.038	0.93	0.021	–
Cc1cc2cc(n1)-c1cnn(C)c1OCCC[C@@H](C1CC1)CN1/C(=N/C2=O)Nc2cc(NC3CCC3)ccc21 [US20250034165, Example 79]	0.007	6.2	0.123	–
Cc1cc2cc(n1)-c1cnn(C)c1OCCC[C@@H](C1CC1)CN1/C(=N/C2=O)Nc2ccc(NCCCN3CCCCC3)cc21 [US20250034165, Example 80]	0.031	0.56	0.019	–
Cc1cc2cc(n1)-c1cnn(C)c1OCCC[C@@H](C1CC1)CN1/C(=N/C2=O)Nc2ccc(NCCCN3CCOCC3)cc21 [US20250034165, Example 81]	0.044	0.68	0.027	–
Cc1cc2cc(n1)-c1cnn(C)c1OCCC[C@@H](C1CC1)CN1/C(=N/C2=O)Nc2ccc(NCCN3CCCCC3)cc21 [US20250034165, Example 83]	0.04	0.79	0.023	–
Cc1cc2cc(n1)-c1cnn(C)c1OCCC[C@@H](C1CC1)CN1/C(=N/C2=O)Nc2ccc(NC3CCCC3)cc21 [US20250034165, Example 87]	0.042	13	0.226	–
[2H]C([2H])([2H])N(C[C@H](C)Nc1ccc2c(c1)N1C[C@H](C3CC3)CCCOc3c(cnn3C)-c3cc(cc(C)n3)C(=O)/N=C\1N2)C([2H])([2H])[2H] [US20250034165, Example 123]	–	–	–	0.16
[2H]C([2H])([2H])N(C[C@H](C)Nc1ccc2c(c1)N/C1=N/C(=O)c3cc(C)nc(c3)-c3cnn(C)c3OCCC[C@@H](C3CC3)CN12)C([2H])([2H])[2H] [US20250034165, Example 124]	–	–	0.16	0.22
[2H]C([2H])([2H])N(C[C@@H](C)Nc1ccc2c(c1)N/C1=N/C(=O)c3cc(C)nc(c3)-c3cnn(C)c3OCCC[C@@H](C3CC3)CN12)C([2H])([2H])[2H] [US20250034165, Example 146]	–	–	0.75	0.52
